Measurements: ChEMBL document CHEMBL1201862, “PubChem BioAssay data set” (2004)
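In this assay, cells in 96-well plates receive the compound at five concentrations for 48 hours. Endpoints are linearly interpolated between the surrounding concentrations. GI50 = concentration required for 50% inhibition of growth.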 The source made the active and inactive calls. Rule as the data show it: active = GI50 up to about 1.1 µM and inactive = higher.

Columns and labels:
Assay in all cases: DTP human tumour cell line panel, 48 h
SNB-78 = system: SNB-78
UACC-257 = system: UACC-257
HT-29 = system: HT-29
U-251 = system: U-251
A549 = system: A549
MDA-MB-231 = system: MDA-MB-231
OVCAR-4 = system: OVCAR-4
XF498 = system: XF498
NCI/ADR-RES = system: NCI/ADR-RES
CCRF-CEM = system: CCRF-CEM
RPMI-8226 = system: RPMI-8226
MDA-MB-435 = system: MDA-MB-435
Hs-578T = system: Hs-578T
HOP-18 = system: HOP-18
SNB-75 = system: SNB-75
BT-549 = system: BT-549
HCT-116 = system: HCT-116
SK-MEL-28 = system: SK-MEL-28
COLO 205 = system: COLO 205
UACC-62 = system: UACC-62
UO-31 = system: UO-31
K562 = system: K562
LXFL 529 = system: LXFL 529
NCI-H23 = system: NCI-H23
SF-295 = system: SF-295
NCI-H460 = system: NCI-H460
KM-20L2 = system: KM-20L2
DMS-114 = system: DMS-114
M14 = system: M14
SR = system: SR
OVCAR-3 = system: OVCAR-3
NCI-H522 = system: NCI-H522
A498 = system: A498
HCT-15 = system: HCT-15
SNB-19 = system: SNB-19
PC-3 = system: PC-3
ACHN = system: ACHN
RXF 631 = system: RXF 631
HOP-92 = system: HOP-92
786-0 = system: 786-0
SK-MEL-5 = system: SK-MEL-5
NCI-H226 = system: NCI-H226
EKVX = system: EKVX
CAKI-1 = system: CAKI-1
SF-268 = system: SF-268
SK-OV-3 = system: SK-OV-3
DMS-273 = system: DMS-273
HL-60 = system: HL-60
SK-MEL-2 = system: SK-MEL-2
SF-539 = system: SF-539
RXF 393 = system: RXF 393
LOX IMVI = system: LOX IMVI
Malme-3M = system: Malme-3M
DU-145 = system: DU-145
SW-620 = system: SW-620
SN12C = system: SN12C
TK-10 = system: TK-10
T47D = system: T47D
MDA-N = system: MDA-N
OVCAR-5 = system: OVCAR-5
MOLT-4 = system: MOLT-4
MCF7 = system: MCF7
OVCAR-8 = system: OVCAR-8
IGROV-1 = system: IGROV-1
HOP-62 = system: HOP-62
HCC 2998 = system: HCC 2998
M19-MEL = system: M19-MEL
KM12 = system: KM12
DLD-1 = system: DLD-1

With `COc1cc2nncc(SCc3ccc(Cl)c(Cl)c3)c2cc1OC` the GI50 (SNB-78) was 40.7 µM (inactive), the GI50 (UACC-257) was > 56.4 µM (inactive) and the GI50 (HT-29) was > 100 µM (inactive). For the same compound, the GI50 (U-251) was 50.5 µM (inactive), the GI50 (A549) was > 82.2 µM (inactive) and the GI50 (MDA-MB-231) was > 100 µM (inactive). For the same compound, the GI50 (OVCAR-4) was > 49.9 µM (inactive), the GI50 (XF498) was 21.5 µM (inactive) and the GI50 (NCI/ADR-RES) was > 100 µM (inactive). For the same compound, the GI50 (CCRF-CEM) was > 100 µM (inactive), the GI50 (RPMI-8226) was > 100 µM (inactive) and the GI50 (MDA-MB-435) was > 100 µM (inactive). The GI50 (Hs-578T) was 80 µM (inactive), the GI50 (HOP-18) was > 100 µM (inactive) and the GI50 (SNB-75) was 24.4 µM (inactive). The GI50 (BT-549) was > 100 µM (inactive), the GI50 (HCT-116) was > 100 µM (inactive) and the GI50 (SK-MEL-28) was > 100 µM (inactive). For the same compound, the GI50 (COLO 205) was > 100 µM (inactive), the GI50 (UACC-62) was 14 µM (inactive) and the GI50 (UO-31) was > 100 µM (inactive). The GI50 (K562) was > 94.8 µM (inactive), the GI50 (LXFL 529) was 17.7 µM (inactive) and the GI50 (NCI-H23) was > 100 µM (inactive). For the same compound, the GI50 (SF-295) was > 69.3 µM (inactive), the GI50 (NCI-H460) was > 72.3 µM (inactive) and the GI50 (KM-20L2) was 6.85 µM (inactive). For the same compound, the GI50 (DMS-114) was > 100 µM (inactive), the GI50 (M14) was > 35.6 µM (inactive) and the GI50 (SR) was > 100 µM (inactive). The GI50 (OVCAR-3) was > 100 µM (inactive), the GI50 (NCI-H522) was 23.2 µM (inactive) and the GI50 (A498) was > 100 µM (inactive). For the same compound, the GI50 (HCT-15) was > 31.3 µM, the GI50 (SNB-19) was 45.9 µM (inactive) and the GI50 (PC-3) was > 100 µM (inactive). For the same compound, the GI50 (ACHN) was > 48.4 µM (inactive), the GI50 (RXF 631) was 72.1 µM (inactive) and the GI50 (HOP-92) was > 45.8 µM (inactive). The GI50 (786-0) was 42.8 µM (inactive), the GI50 (SK-MEL-5) was > 100 µM (inactive) and the GI50 (NCI-H226) was > 100 µM (inactive). For the same compound, the GI50 (EKVX) was > 100 µM (inactive), the GI50 (CAKI-1) was > 73.8 µM (inactive) and the GI50 (SF-268) was > 69.5 µM (inactive). The GI50 (SK-OV-3) was > 71.3 µM (inactive), the GI50 (DMS-273) was > 100 µM (inactive) and the GI50 (HL-60) was > 50.8 µM (inactive). The GI50 (SK-MEL-2) was > 100 µM (inactive), the GI50 (SF-539) was 35.6 µM (inactive) and the GI50 (RXF 393) was 35.3 µM (inactive). The GI50 (LOX IMVI) was 26.2 µM (inactive), the GI50 (Malme-3M) was > 100 µM (inactive) and the GI50 (DU-145) was > 100 µM (inactive). The GI50 (SW-620) was > 100 µM (inactive), the GI50 (SN12C) was > 100 µM (inactive) and the GI50 (TK-10) was 82.4 µM (inactive). For the same compound, the GI50 (T47D) was 34 µM (inactive), the GI50 (MDA-N) was > 100 µM (inactive) and the GI50 (OVCAR-5) was 98.4 µM (inactive). For the same compound, the GI50 (MOLT-4) was > 100 µM (inactive), the GI50 (MCF7) was 89.5 µM (inactive) and the GI50 (OVCAR-8) was > 100 µM (inactive). For the same compound, the GI50 (IGROV-1) was 99.3 µM (inactive), the GI50 (HOP-62) was 32.3 µM (inactive) and the GI50 (HCC 2998) was > 100 µM (inactive). For the same compound, the GI50 (M19-MEL) was > 100 µM (inactive) and the GI50 (KM12) was > 62.7 µM (inactive).

`N#CC(C(=O)C(=O)Nc1ccc(Cl)cc1)c1ccccc1` (centres undefined) was tested, and the GI50 (SNB-78) was > 100 µM (inactive), the GI50 (UACC-257) was > 100 µM (inactive) and the GI50 (HT-29) was > 100 µM (inactive). The GI50 (U-251) was > 100 µM (inactive), the GI50 (A549) was > 100 µM (inactive) and the GI50 (OVCAR-4) was > 100 µM (inactive). For the same compound, the GI50 (CCRF-CEM) was > 100 µM (inactive), the GI50 (RPMI-8226) was > 100 µM (inactive) and the GI50 (HOP-18) was > 100 µM (inactive). The GI50 (SNB-75) was > 100 µM (inactive), the GI50 (HCT-116) was > 100 µM (inactive) and the GI50 (SK-MEL-28) was > 100 µM (inactive). For the same compound, the GI50 (COLO 205) was 93.1 µM (inactive), the GI50 (UACC-62) was 22.6 µM (inactive) and the GI50 (UO-31) was > 100 µM (inactive). The GI50 (K562) was > 100 µM (inactive), the GI50 (LXFL 529) was > 100 µM (inactive) and the GI50 (NCI-H23) was > 100 µM (inactive). The GI50 (SF-295) was > 100 µM (inactive), the GI50 (NCI-H460) was > 100 µM (inactive) and the GI50 (KM-20L2) was > 100 µM (inactive). The GI50 (DMS-114) was > 100 µM (inactive), the GI50 (M14) was > 100 µM (inactive) and the GI50 (SR) was > 100 µM (inactive). For the same compound, the GI50 (OVCAR-3) was > 100 µM (inactive), the GI50 (A498) was > 100 µM (inactive) and the GI50 (HCT-15) was > 100 µM. For the same compound, the GI50 (SNB-19) was > 100 µM (inactive), the GI50 (ACHN) was > 100 µM (inactive) and the GI50 (RXF 631) was > 100 µM (inactive). For the same compound, the GI50 (HOP-92) was > 100 µM (inactive), the GI50 (786-0) was > 100 µM (inactive) and the GI50 (SK-MEL-5) was > 100 µM (inactive). For the same compound, the GI50 (NCI-H226) was > 100 µM (inactive), the GI50 (EKVX) was > 100 µM (inactive) and the GI50 (CAKI-1) was > 100 µM (inactive). For the same compound, the GI50 (SF-268) was > 100 µM (inactive), the GI50 (SK-OV-3) was > 100 µM (inactive) and the GI50 (DMS-273) was > 100 µM (inactive). The GI50 (HL-60) was > 100 µM (inactive), the GI50 (SK-MEL-2) was > 100 µM (inactive) and the GI50 (SF-539) was > 100 µM (inactive). For the same compound, the GI50 (RXF 393) was > 100 µM (inactive), the GI50 (LOX IMVI) was > 100 µM (inactive) and the GI50 (Malme-3M) was > 100 µM (inactive). The GI50 (SW-620) was > 100 µM (inactive), the GI50 (SN12C) was > 100 µM (inactive) and the GI50 (TK-10) was > 100 µM (inactive). For the same compound, the GI50 (OVCAR-5) was > 100 µM (inactive), the GI50 (MOLT-4) was > 100 µM (inactive) and the GI50 (DLD-1) was > 100 µM (inactive). The GI50 (IGROV-1) was > 100 µM (inactive), the GI50 (HOP-62) was 85.1 µM (inactive) and the GI50 (HCC 2998) was > 100 µM (inactive). For the same compound, the GI50 (M19-MEL) was > 100 µM (inactive) and the GI50 (KM12) was > 100 µM (inactive).
